Literature values, collected in patent US7901914B2, “Microbiological method of the biosynthesis of natural blue-violet colorants violacein and deoxyviolacein and the utilization thereof” (Stiftung Alfred-Wegener-Institut fuer Polar- und …, priority 2000, dated 2011).

solubility in organic solvents (in acetone, ethanol and dioxane): soluble
solubility in water (in water): practically insoluble
SMILES: O=C1NC(c2c[nH]c3ccc(O)cc23)=C/C1=C1\C(=O)Nc2ccccc21 [violacein, 3-[1,2-dihydro-5-(5-hydroxy-1H-indole-3-yl)-2-oxo-3-H-pyrrole-3-ylidene]-1,3-dihydro-2H-indole-2-on]
